# Experimental data taken from patent US7626044B2, “Triptolide derivatives and their uses” (priority 2002, dated 2009).
# Where “and” joins values, the source holds several entries; their conditions need not be identical. Equal entries are not always repeated.
# What was measured:
# [1] = test system: A-549 (human lung carcinoma); experiment: Tumor cell proliferation, A-549; assay type: cell-based; conditions: read-out: Inhibitory effect on tumor cell proliferation IC50
# [2] = test system: Sac-stimulated lymphocytes; experiment: Cytokine production from Sac-stimulated lymphocytes (ELISA); assay type: cell-based, mouse; conditions: for IFN-γ production by lymphocytes stimulated with Sac, Mean Value: without drug 1302.6; for IL-12 production by lymphocytes stimulated with Sac: without drug 980; for IL-6 production by lymphocytes stimulated with Sac: without drug 1528; for IL-10 production by lymphocytes stimulated with Sac: without drug 2306; for TNF-α production by lymphocytes stimulated with Sac: without drug 4062
# Method: Mice were sacrificed by cervical dislocation, and spleens were collected under sterile conditions then teased through a nylon mesh. Erythrocytes were lysed. Cells were washed and resuspended at 5×10^6/ml in RPMI-1640 media with 10% FBS.
# 1 ml of spleen cells were treated with or without ConA (5 μg/ml) or Sac (1:10000) and in the presence or absence of drugs in a final volume of 2 ml.
# After 24 h culture at 37° C., 5% CO2 in a humidified incubator, cell-free supernatant was collected and frozen at −20° C. for ELISA.
# TMB was taken as the enzyme substrate. The absorbance was measured at 450/570 nm by BioRad microplate reader. […]
# rat adjuvant arthritis = experiment: Rat adjuvant arthritis (AA), therapeutic effect; assay type: in vivo; conditions: i.p. for 14 days from day 19; especially at 2 mg/Kg/d
# Method: Rats were immunized on day 0 by intradermal injection of Complete Freund's adjuvant (CFA), containing 10 mg heat-inactivated BCG in 1 ml paraffin oil, into the left hind paw in 0.1 ml for each rat. Inflammatory polyarthritis was induced in all immunized rats. Swelling in left paw and polyarthritic symptoms were seen from day 1, lasted for 4 days, and then diminished. Swelling in the same paw occurred again from day 8, reached the peak at day 16. The secondary symptoms, including the right hind paw swelling and polyarthritis, were seen from day 12. The polyarthritis severity was graded on a scale of 0-4: 0=no swelling; 1=isolated phalanx joint involvement; 2=involvement of phalanx joint and digits; 3=involvement of the entire region down to the ankle; 4=involvement of entire paw, including ankle.
# Right hind paw volume was determined before immunization (basic value, day 0) and repeated every 3 days. Animals were sacrificed on day 15, and thymus and spleen were harvested for thymus and spleen index assessment. Result: The secondary symptoms were established when the right hind paw severely swelled 19 days after adjuvant injection. […] Comparing with AA model rat, LLDT-8 treatment, especially at dose of 2 mg/Kg/d, markedly withdrew the symptoms (FIG. 16 and FIG. 17).
# [3] = test system: HO-8910 (human ovary cancer cells); experiment: Tumor cell proliferation, HO-8910; assay type: cell-based; conditions: read-out: Inhibitory effect on tumor cell proliferation IC50
# [4] = test system: BEL-7402 (human hepatic carcinoma cell); experiment: Tumor cell proliferation, BEL-7402; assay type: cell-based; conditions: read-out: Inhibitory effect on tumor cell proliferation IC50
# [5] = test system: C57BL/6 skin allograft on BALB/c mice; experiment: Murine skin allograft transplantation; assay type: in vivo, mouse; conditions: C57BL/6 skin to BALB/c mice; daily i.p.; preliminary results
# Method: Full-thickness tail skin was aseptically harvested from adult C57BL/6 mice.
# The skin allografts were transplanted onto the flank of adult recipient BALB/c mice.
# Engrafted mice were administered LLDT-8 daily or, as a control, phosphate-buffered saline (PBS) by intraperitoneal (i.p.) injection.
# [6] = test system: splenocytes (C57BL/6 responder, Balb/c stimulator); experiment: MLR response of C57BL/6 against Balb/c; assay type: cell-based, mouse
# Method: C57BL/6 and Balb/c mice were sacrificed by cervical dislocation, and spleens were collected under sterile conditions then teased through a nylon mesh. Erythrocytes were lysed. Cells were washed and resuspended at 6×10^6/ml in RPMI-1640 media with 10% FBS.
# Splenocytes from responder (C57BL/6) were mixed with stimulator (Balb/c), which was pretreated with ^60Co Gamma Ray irradiation (3000 rads).
# Stimulator and responder cells were cultured in a 200 μl volume in 96-well plate in the presence of drugs or medium, at 37° C., 5% CO2 in a humidified incubator, for 3, 4, and 5 days, respectively. In the last 8 h of incubation, cells were treated with 25 μl (3.8×10^10 Bq) of [^3H]Thymidine.
# (§1) At the end of incubation, pulsed cells were harvested on a glass filter using a cell harvester ([…]96®, TOMTEC) and allowed to dry. Incorporation of radioactive thymidine was determined by using liquid Scintillation and Luminescence Counters (MicroBeta Trilux®, PerkinElmer).
# T lymphocyte = experiment: ConA induced T-lymphocyte proliferation ([3H]thymidine); assay type: cell-based, mouse
# Method: Mice were sacrificed by cervical dislocation, and spleens were collected under sterile conditions then teased through a nylon mesh. Erythrocytes were lysed. Cells were washed and resuspended at 5×10^6/ml in RPMI-1640 media containing 10% FBS. For one 96 well plate assay, 100 pt of cells, 50 μl of sample and 50 μl of ConA/LPS were added into each well with the final volume 200 μl. The control wells were set up with 50 μl of RPMI-1640 media instead of ConA/LPS.
# Plates were incubated for 48 h (ConA) or 60 h (LPS), respectively, at 37° C., 5% CO2 in a humidified incubator. In the last 8 h of incubation, 25 μl (1.9×10^10 Bq) of [^3H]thymidine was added. After plates were incubated for 48 h, the plates (ConA) were stored at −20° C., then after another 12 h, the plates (LPS) were stored at −20° C.
# as §1
# lymphocyte = experiment: MTT cytotoxic assay; assay type: cell-based, mouse; conditions: mouse spleen cells, 48 hours, MTT
# Method: Mice were sacrificed by cervical dislocation, and spleens were collected under sterile conditions then teased through a nylon mesh. Erythrocytes were lysed. Cells were washed and resuspended at 5×10^6/ml in RPMI-1640 media supplemented with 10% FBS.
# For one 96 well plate assay, 90 μl of cells, 45 μl of sample and 45 μl of RPMI-1640 media with 10% FBS were added into each well with the final volume 180 μl. The negative control wells (containing 90 μl of RPMI-1640 media with 10% FBS and 90 pt of cells), blank control (180 μl of RPMI-1640 media with 10% FBS) were also performed. Incubate plate for 48 hours at 37° C., 5% CO2 in a humidified incubator. 18 μl of MTT solution (5 mg/ml) was added for 6-7 h.
# 90 μl of MTT lysis solution was added to each well followed by a further incubation at 37° C. for 6-7 h. And the absorbance was measured at 570 nm using a plate reader.
compound,measurement,setting,value
"CC(C)[C@]12O[C@H]1[C@@H]1O[C@]13[C@]1(O[C@H]1C[C@@]1(O)C4=C(CC[C@]31C)C(=O)OC4)[C@@H]2O [LLDT-8, (5R)-5-hydroxytriptolide]",IC50,[1],32 nM
same,"IFN-γ production by lymphocytes stimulated with Sac, Mean Value",[2]; 0.01 nM,809.7 pg/mL
same,"IFN-γ production by lymphocytes stimulated with Sac, Mean Value",[2]; 0.1 nM,850.5 pg/mL
same,IL-12 production by lymphocytes stimulated with Sac,[2]; 0.3 nM,917 pg/mL
same,IL-6 production by lymphocytes stimulated with Sac,[2]; 0.3 nM,1585 pg/mL
same,IL-10 production by lymphocytes stimulated with Sac,[2]; 0.3 nM,2866 pg/mL
same,TNF-α production by lymphocytes stimulated with Sac,[2]; 0.3 nM,4686 pg/mL
same,"IFN-γ production by lymphocytes stimulated with Sac, Mean Value",[2]; 1 nM,810.3 pg/mL
same,IL-12 production by lymphocytes stimulated with Sac,[2]; 3 nM,939 pg/mL
same,IL-6 production by lymphocytes stimulated with Sac,[2]; 3 nM,1403 pg/mL
same,IL-10 production by lymphocytes stimulated with Sac,[2]; 3 nM,2816 pg/mL
same,TNF-α production by lymphocytes stimulated with Sac,[2]; 3 nM,3899 pg/mL
same,"IFN-γ production by lymphocytes stimulated with Sac, Mean Value",[2]; 10 nM,465.3 pg/mL
same,IL-12 production by lymphocytes stimulated with Sac,[2]; 30 nM,602 pg/mL
same,IL-6 production by lymphocytes stimulated with Sac,[2]; 30 nM,989 pg/mL
same,IL-10 production by lymphocytes stimulated with Sac,[2]; 30 nM,3262 pg/mL
same,TNF-α production by lymphocytes stimulated with Sac,[2]; 30 nM,3649 pg/mL
same,"IFN-γ production by lymphocytes stimulated with Sac, Mean Value",[2]; 100 nM,227.4 pg/mL
same,polyarthritic symptoms (therapeutic),rat adjuvant arthritis,effectively cured the polyarthritic symptoms
same,IC50,[3],220 nM
same,IC50,[4],85 nM
same,murine allograft survival,[5],prolonged murine allograft survival
same,ED50 (MLR response),[6]; C57BL/6 against Balb/c,0.0006 µg/mL
same,EC50,"[6]; C57BL/6 against Balb/c, read-out: ED50 (MLR response)",1.6 nM
same,potency higher than CsA (MLR),[6]; compared with CsA,about 2.5 fold
same,ED50 for inhibiting T lymphocyte proliferation induced by ConA,T lymphocyte; 48 h,0.05812 µg/mL
same,EC50,"T lymphocyte; 48 h, read-out: ED50 for inhibiting T lymphocyte proliferation induced by ConA",155 nM
same,inhibitory activity weaker than CsA (T lymphocyte proliferation),T lymphocyte; compared with CsA,about 5.4 fold
same,IC50 (concentration required to reduce the viability of cells by 50%),lymphocyte,0.0782 µg/mL
same,IC50,lymphocyte; read-out: IC50 (concentration required to reduce the viability of cells by 50%),208 nM and 200 nM
